Measurements reported in the supplement of paper PMC11451515.

Test system: P12-Ichikawa
Assay: cell viability relative to DMSO control; higher = less cytotoxic
Conditions: 48 h
Summary of the method: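 Viability values are per-plate percentages of DMSO wells, with background from cell-free wells. Library compounds in DMSO were pin-dosed, in an 11-point threefold series from 47 μM to 0.79 nM, onto NOMO1 or SEM (500 cells/well) or P12-Ichikawa (1000 cells/well) leukemia cells in 1536-well plates (5 μl). Those cells had been adapted for at least four passages in each medium, and CellTiter-Glo One luminescence was read after 48 h at 37°C.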

[1] = HPLM + 10% dialyzed FBS, 0.000781 µM
[2] = HPLM + 10% dialyzed FBS, 0.00234 µM
[3] = HPLM + 10% dialyzed FBS, 0.00702 µM
[4] = HPLM + 10% dialyzed FBS, 0.0211 µM
[5] = HPLM + 10% dialyzed FBS, 0.0632 µM
[6] = HPLM + 10% dialyzed FBS, 0.19 µM
[7] = HPLM + 10% dialyzed FBS, 0.569 µM
[8] = HPLM + 10% dialyzed FBS, 1.71 µM
[9] = HPLM + 10% dialyzed FBS, 5.12 µM
[10] = HPLM + 10% dialyzed FBS, 15.4 µM
[11] = HPLM + 10% dialyzed FBS, 46.1 µM
[12] = RPMI 5 mM glucose + 10% FBS, 0.000781 µM
[13] = RPMI 5 mM glucose + 10% FBS, 0.00234 µM
[14] = RPMI 5 mM glucose + 10% FBS, 0.00702 µM
[15] = RPMI 5 mM glucose + 10% FBS, 0.0211 µM
[16] = RPMI 5 mM glucose + 10% FBS, 0.0632 µM
[17] = RPMI 5 mM glucose + 10% FBS, 0.19 µM
[18] = RPMI 5 mM glucose + 10% FBS, 0.569 µM
[19] = RPMI 5 mM glucose + 10% FBS, 1.71 µM
[20] = RPMI 5 mM glucose + 10% FBS, 5.12 µM
[21] = RPMI 5 mM glucose + 10% FBS, 15.4 µM
[22] = RPMI 5 mM glucose + 10% FBS, 46.1 µM
[23] = RPMI 5 mM glucose + 10% dialyzed FBS, 0.000781 µM
[24] = RPMI 5 mM glucose + 10% dialyzed FBS, 0.00234 µM
[25] = RPMI 5 mM glucose + 10% dialyzed FBS, 0.00702 µM
[26] = RPMI 5 mM glucose + 10% dialyzed FBS, 0.0211 µM
[27] = RPMI 5 mM glucose + 10% dialyzed FBS, 0.0632 µM
[28] = RPMI 5 mM glucose + 10% dialyzed FBS, 0.19 µM
[29] = RPMI 5 mM glucose + 10% dialyzed FBS, 0.569 µM
[30] = RPMI 5 mM glucose + 10% dialyzed FBS, 1.71 µM
[31] = RPMI 5 mM glucose + 10% dialyzed FBS, 5.12 µM
[32] = RPMI 5 mM glucose + 10% dialyzed FBS, 15.4 µM
[33] = RPMI 5 mM glucose + 10% dialyzed FBS, 46.1 µM

SMILES | cell viability [1] [%] | cell viability [2] [%] | cell viability [3] [%] | cell viability [4] [%] | cell viability [5] [%] | cell viability [6] [%] | cell viability [7] [%] | cell viability [8] [%] | cell viability [9] [%] | cell viability [10] [%] | cell viability [11] [%] | cell viability [12] [%] | cell viability [13] [%] | cell viability [14] [%] | cell viability [15] [%] | cell viability [16] [%] | cell viability [17] [%] | cell viability [18] [%] | cell viability [19] [%] | cell viability [20] [%] | cell viability [21] [%] | cell viability [22] [%] | cell viability [23] [%] | cell viability [24] [%] | cell viability [25] [%] | cell viability [26] [%] | cell viability [27] [%] | cell viability [28] [%] | cell viability [29] [%] | cell viability [30] [%] | cell viability [31] [%] | cell viability [32] [%] | cell viability [33] [%]
COc1cc2c(Nc3ccc(Br)cc3F)ncnc2cc1OCC1CCN(C)CC1 | 87.8 | 93.5 | 91.3 | 91.1 | 91.9 | 88.4 | 87.8 | 82.8 | 89.9 | 73.9 | 86.9 | 82 | 81.8 | 79 | 87.7 | 87.3 | 81.7 | 85.2 | 84.8 | 80.6 | 80.9 | 83 | 88.7 | 86.1 | 84.6 | 83.3 | 88.3 | 88.8 | 84.5 | 84.4 | 76.9 | 68 | 79.8
CN1\C(=C(\O)C2=C(C=CC=C2)[S+]1([O-])=O)C(=O)NC3=CC=CC=N3 | 96.6 | 104 | 109 | 119 | 107 | 110 | 70.9 | 101 | 73.1 | 30.5 | 12.2 | 104 | 111 | 114 | 105 | 108 | 109 | 82.4 | 105 | 70.2 | 42 | 10.4 | 96.9 | 97.7 | 99.5 | 112 | 105 | 106 | 85.7 | 106 | 81.9 | 60.1 | 12.4
Nc1nnc(-c2cccc(Cl)c2Cl)c(N)n1 | 87.5 | 105 | 104 | 10.7 | 107 | 106 | 99.7 | 104 | 102 | 112 | 102 | 90.2 | 98.1 | 95.8 | 11.9 | 100 | 106 | 99.6 | 90.5 | 102 | 102 | 91 | 83.8 | 88.4 | 87.7 | 29.6 | 95 | 97.7 | 99.4 | 97.5 | 98.7 | 105 | 92.1
CN(C)CCOc1ccc(-c2nc(-c3ccncc3)c(-c3ccc4c(c3)CC/C4=N\O)[nH]2)cc1 | 103 | 107 | 106 | 100 | 103 | 109 | 106 | 100 | 93.7 | 90.6 | 65.9 | 113 | 108 | 109 | 110 | 109 | 107 | 109 | 103 | 94.5 | 96.4 | 65.6 | 109 | 104 | 114 | 101 | 106 | 105 | 109 | 104 | 96.8 | 84 | 66.7
N[S+](=O)([O-])c1cccc2c1C(=O)c1cccc(O)c1C2=O | 108 | 106 | 115 | 111 | 121 | 114 | 114 | 118 | 105 | 80.9 | 4.7 | 102 | 105 | 108 | 112 | 116 | 123 | 106 | 111 | 96.7 | 102 | 3.97 | 98.9 | 95.8 | 110 | 106 | 113 | 121 | 104 | 112 | 94.3 | 92.8 | 3.3
NCCCCNCCCN | 108 | 108 | 115 | 108 | 110 | 121 | 115 | 116 | 109 | 104 | 41.4 | 110 | 109 | 113 | 114 | 114 | 118 | 123 | 118 | 105 | 73.7 | 3.31 | 101 | 102 | 98.4 | 116 | 104 | 111 | 115 | 111 | 115 | 87 | 6.5
CN(C)c1nc(Cc2ccc(NC(=O)c3ccc4ccccc4c3)cc2)nc(Cl)c1CC(=O)O | 112 | 112 | 101 | 101 | 108 | 124 | 104 | 99.4 | 84.8 | 84.8 | 69.3 | 117 | 107 | 124 | 115 | 117 | 114 | 107 | 98.7 | 87.2 | 69.8 | 73.6 | 106 | 113 | 113 | 111 | 106 | 107 | 105 | 104 | 84 | 68.7 | 61.5
CC1(C)CNc2cc(NC(=O)c3cccnc3NCc3ccncc3)ccc21 | 120 | 115 | 125 | 121 | 128 | 116 | 117 | 118 | 112 | 110 | 101 | 127 | 117 | 122 | 116 | 115 | 106 | 119 | 117 | 111 | 105 | 107 | 121 | 124 | 128 | 121 | 120 | 120 | 123 | 112 | 113 | 113 | 96.1
C=CC(=O)Nc1cccc(Nc2nc(NC3CCC(N(C)C)CC3)nc3c2ncn3C(C)C)c1 (stereo not given) | 107 | 115 | 112 | 106 | 112 | 113 | 105 | 85.3 | 36.7 | 11.1 | 5.85 | 115 | 114 | 114 | 112 | 115 | 112 | 107 | 94.8 | 28.6 | 8.46 | 5.44 | 108 | 110 | 108 | 116 | 122 | 119 | 123 | 114 | 35.5 | 11 | 6.55
CC[C@]12\C=C/CN3CC[C@]4([C@@H](N(C)C5=CC(=C(C=C45)[C@]6(C[C@H]7C[C@H](CN(C7)CC8=C6[NH]C9=C8C=CC=C9)C(C)(F)F)C(=O)OC)OC)[C@](O)([C@@H]1OC(C)=O)C(=O)OC)[C@H]23 | 91.9 | 93.3 | 92 | 69.4 | 37 | 12 | 15.3 | 13.2 | 8.31 | 8.59 | 6.21 | 93.7 | 88.8 | 85.9 | 63.7 | 18.6 | 13.9 | 20.9 | 11.4 | 8.45 | 7.91 | 5.99 | 87.4 | 83 | 83.5 | 79.3 | 51.6 | 27.1 | 26.5 | 21.5 | 16.1 | 13 | 5.7
CC(C)c1cc(C(=O)N2Cc3ccc(CN4CCN(C)CC4)cc3C2)c(O)cc1O | 118 | 121 | 123 | 106 | 124 | 109 | 89.3 | 65.8 | 54.7 | 52.8 | 51.4 | 115 | 119 | 115 | 105 | 114 | 97.7 | 56.4 | 52.5 | 41.3 | 40.7 | 39.8 | 119 | 122 | 125 | 112 | 125 | 112 | 65.3 | 50 | 43.3 | 44.5 | 43.3
OC(=O)C(CC/1=C/C(=O)NC2=CC=CC=C12)NC(=O)C3=CC=C(Cl)C=C3 (stereo not given) | 111 | 118 | 120 | 123 | 123 | 125 | 124 | 128 | 122 | 126 | 125 | 109 | 115 | 119 | 117 | 131 | 122 | 128 | 121 | 128 | 132 | 141 | 120 | 122 | 129 | 130 | 139 | 135 | 135 | 128 | 130 | 124 | 133
Cc1ccc([S+](=O)([O-])Nc2nc3ccccc3nc2Nc2ccc3nsnc3c2)cc1 | 105 | 110 | 111 | 110 | 115 | 116 | 109 | 112 | 106 | 36.3 | 13.3 | 93.4 | 114 | 104 | 116 | 103 | 113 | 110 | 103 | 77.5 | 28.5 | 12.4 | 92 | 107 | 112 | 116 | 112 | 104 | 101 | 112 | 92.1 | 74.1 | 30.4
CO/C1=C/C(C)=C\[C@@H](C)[C@@H](O)[C@@H](C)C/C(C)=C\C=C/[C@H](OC)[C@@H]([C@@H](C)[C@@H](O)[C@H](C)[C@@]2(O)C[C@@H](O)[C@H](C)[C@@H](C(C)C)O2)OC1=O | 88.2 | 99.5 | 91.5 | 96.3 | 81.7 | 39.5 | 34.8 | 34.8 | 37.5 | 36.8 | 33 | 89 | 96.6 | 99.1 | 88.6 | 70.1 | 37.8 | 29.4 | 27.9 | 26.4 | 25.4 | 22.1 | 82.4 | 88.3 | 88.3 | 75.2 | 60.7 | 29.9 | 19.9 | 21.3 | 19.4 | 20 | 18
COc1ccc([C@@H]2CC(=O)c3c(O)cc(O[C@@H]4O[C@H](CO[C@@H]5O[C@@H](C)[C@H](O)[C@@H](O)[C@H]5O)[C@@H](O)[C@H](O)[C@H]4O)cc3O2)cc1O | 97.9 | 99 | 116 | 118 | 113 | 116 | 107 | 116 | 114 | 111 | 116 | 96.2 | 101 | 110 | 113 | 107 | 114 | 111 | 106 | 107 | 116 | 109 | 104 | 111 | 109 | 108 | 114 | 111 | 113 | 111 | 108 | 115 | 109
